Experimental findings from a melting point compilation (Tetko et al.; mined from patent text by program, amines drawn as free bases though some values may be those of a salt) are described below.

The term melting point denotes the temperature of the solid-liquid transition. `Cc1c(C#N)c(N)n(-c2ccc([N+](=O)[O-])cc2)c1C` yielded a melting point of 310 °C.

Take `CCOC(=O)c1cn(Cc2ccccc2)nc1OCc1ccc(OCc2nc(-c3ccco3)oc2C)c(OCC)c1`: the melting point lay in the range of 121 to 122 °C.

`Fc1c(F)c(F)c(-c2c3ccccc3c(-c3c(F)c(F)c(F)c(F)c3F)c3ccccc23)c(F)c1F` had a melting point of 337 to 338 °C.

`COc1ccc(CC(C#N)C(=O)O)cc1` (centres undefined) displayed a melting point of 94 to 95 °C.

As to `C=CCOc1ccc(-c2nc3n(c2-c2ccc(OCC=C)cc2)CCS3)cc1`, the melting point lay in the range of 135 to 138 °C.

With `Cc1ccnc(CCOc2ccc(NC(=O)N(C)C)cc2)c1`, the melting point fell in the range of 132 to 133 °C.

As to `ClCc1nc(Cl)c2ccsc2n1`, the melting point lay in the range of 66 to 68 °C.

For `O=C(Oc1ccccc1C(=O)NCCO[N+](=O)[O-])c1cccnc1`, the melting point lay within 94 to 96 °C.

The compound `O=C(O)C1CCCc2c(-c3ccc(Cl)cc3)noc2C1` (centres undefined) came in with a melting point of 215 to 217 °C.

Compound `CCOc1cc2nc(NC)nc(-c3cccc(-c4cnc5ccccc5c4)c3)c2cc1OCC` gave a melting point of 157 to 159 °C.

Compound `O=C(NC/C=C/c1ccccc1)c1ccccc1F` displayed a melting point of 68 °C.

For the compound `CC(C)C(=O)Nc1cccc(N(CCO)CCO)c1`, the melting point was 120 to 122 °C.

For the compound `CC(=O)Nc1cc(Oc2ccc3c(C(=O)Nc4ccc(N5CCS(=O)(=O)CC5)c(C(F)(F)F)c4)cccc3c2)ncn1`, the melting point was 280 to 287 °C.

Compound `O=[N+]([O-])c1c(CO)cccc1CO` yielded a melting point of 100 to 101 °C.

As for `O=S(=O)(CF)c1cccc(Br)c1Cl`, the melting point is 149 °C.

Compound `BrC(Br)=Cc1ccc(OCc2ccccc2)cc1` showed a melting point of 97 to 98 °C.

`O=C(Nc1cc2ncc(CN3CCCC3)cc2cc1F)c1ccc(-c2ccc(F)cc2)cc1` yielded a melting point of 198 to 200 °C.

Regarding `CCOCCCNC(=O)Nc1ccccc1CCc1cc(C(C)(C)C)c(O)c(C(C)(C)C)c1`, the melting point is 136 to 137 °C.

`Cc1ccc(-c2ccc(C(=O)Nc3ccc4nc(CN5CCCC5)ccc4c3)cc2)cc1` gave a melting point of 192 to 193 °C.

`O=C(O)Cc1c(C(=O)c2ccccc2)[nH]c2cc(Cl)c(Cl)cc12`: the melting point fell in the range of 206 to 210 °C.

`Cc1sc(-c2ccccc2)nc1CCOc1cc(COc2ccccc2CC(=O)O)on1` returned a melting point of 159 to 160 °C.

Turning to `Cc1[nH]n(Cc2cccc(C(=O)O)c2)c2nc(-c3ccncc3)nc(=O)c1-2`, the melting point is over 300 °C.

Compound `CNC(=O)C(C)CCn1c(COc2ccc(Cl)cc2)nc2c(C)cccc21` (centres undefined) had a melting point of 168 °C.

`COC(=O)c1sccc1C(C)=O` registered a melting point of 59 to 60 °C.

For `Cc1cc(-c2nc3cc(Cl)cc(Cl)c3c(=O)[nH]2)cc(C)c1OCCN1CCCC1`, the melting point fell in the range of 209 to 210 °C.

Consider `Cc1ccc(NCC(=O)Nc2ccc(S(N)(=O)=O)cc2Cl)cc1`, for which the melting point lay in the range of 215 to 216 °C.

`CC(N)C(=O)N1CC(=O)N(CC(N)=O)C1(C)C` (centres undefined) displayed a melting point of 196 to 197 °C.

Regarding `CC(=O)OC(c1cn2c(nc3ccccc32)s1)C1(Br)C(=O)N2C(C(=O)OCc3ccc([N+](=O)[O-])cc3)=CS[C@@H]21` (some centres undefined), the melting point was 78 °C.

The compound `CCn1cc(C(=O)O)c(=O)c2cc(F)c(N3CCNC(c4ccn(S(=O)(=O)c5ccccc5)c4)C3)cc21` (centres undefined) yielded a melting point of 120 °C.

As to `CCc1ccc2c(c1)C(O)Cc1ccc(F)cc1S2` (centres undefined), the melting point came out at 97 °C.

Compound `O=C(c1ccc(F)cc1)N1CCC[C@H](c2noc(-c3ccc(F)cn3)n2)C1` returned a melting point of 108 to 110 °C.

Compound `Nc1sc2c(c1C(=O)c1cccs1)CCC(Cc1ccccc1)C2` (centres undefined) returned a melting point of 116 to 118 °C.

In turn, `Cc1c2c(nc3ccccc13)CCN(S(=O)(=O)c1ccc(Cl)cc1)CC2` had a melting point of 189 °C.

The compound `Cc1c(C)c2c(c(C)c1O)C(C(=O)O)C(C)(C)O2` (centres undefined) displayed a melting point of 161 to 164 °C.
